Measured values published in patent US20260028354A1, “TETRAHYDRONAPHTHALENE DERIVATIVES AS ESTROGEN RECEPTOR DEGRADERS” (REGENT OF THE UNIVERSITY OF MICHIGAN, priority 2022, published 2026).
Read-outs that look alike come from different tables or passages of the source.

Columns and labels:
ER in T47D cells = ER in T47D cells (Homo sapiens (Human), UniProt P03372); test: In-cell Western (ICW) ER degradation assay in T47D cells; format: cell-based; settings: 16 hrs treatment; for DC50: ER degradation; for Dmax / T47D Dmax: maximal ER degradation; for Dmax: read-out: T47D Dmax
Sequence of ER in T47D cells (P03372 whole entry): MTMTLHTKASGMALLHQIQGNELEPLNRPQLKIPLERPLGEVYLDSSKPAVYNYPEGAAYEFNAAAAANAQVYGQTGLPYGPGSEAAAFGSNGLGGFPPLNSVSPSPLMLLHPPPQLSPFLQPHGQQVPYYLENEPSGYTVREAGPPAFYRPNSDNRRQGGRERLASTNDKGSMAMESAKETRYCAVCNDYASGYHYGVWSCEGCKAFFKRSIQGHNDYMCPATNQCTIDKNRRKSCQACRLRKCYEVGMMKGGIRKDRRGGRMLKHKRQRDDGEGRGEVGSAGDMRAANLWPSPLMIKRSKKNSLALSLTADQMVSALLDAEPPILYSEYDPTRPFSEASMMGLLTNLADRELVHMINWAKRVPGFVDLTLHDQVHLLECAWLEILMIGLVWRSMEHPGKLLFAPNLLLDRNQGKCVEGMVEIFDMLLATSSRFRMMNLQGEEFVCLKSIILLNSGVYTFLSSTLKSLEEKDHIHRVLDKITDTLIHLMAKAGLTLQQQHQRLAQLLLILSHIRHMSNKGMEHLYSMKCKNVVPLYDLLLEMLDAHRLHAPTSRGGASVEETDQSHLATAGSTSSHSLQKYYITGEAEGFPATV
From the text: In-cell Western (ICW) assays in MCF-7 and T47D cell lines.
Day 3: After 16 hrs of compounds treatment, cells were fixed by 4% PFA and permeabilized with elution buffer (0.1% Triton X-100 in 1% PBS Solution). Subsequently, cells were blocked with Intercept (PBS) Blocking Buffer (Li-COR, Odyssey Blocking Buffer), and were stained with ER (1:500, Cell signaling) primary antibody for overnight at cold room.
Day 4: Remove the buffer, add IRDye 800CW Goat anti-Rabbit IgG Secondary Antibody (1:2000) and CellTag 700 Stain (1:500) in Intercept (PBS) Blocking Buffer. Finally, cell plate is placed in incubator to dry. Image and signal were captured on Odyssey® DLx Imaging System.

CRBN/DDB1 = CRBN/DDB1 (Homo sapiens (Human), UniProt Q96SW2); format: binding; settings: His tagged CRBN+DDB1, Cy5-labeled Thalidomide probe, one hour; read-out: CRBN HTRF IC50
Sequence of CRBN/DDB1 (Q96SW2 whole entry, species assumed): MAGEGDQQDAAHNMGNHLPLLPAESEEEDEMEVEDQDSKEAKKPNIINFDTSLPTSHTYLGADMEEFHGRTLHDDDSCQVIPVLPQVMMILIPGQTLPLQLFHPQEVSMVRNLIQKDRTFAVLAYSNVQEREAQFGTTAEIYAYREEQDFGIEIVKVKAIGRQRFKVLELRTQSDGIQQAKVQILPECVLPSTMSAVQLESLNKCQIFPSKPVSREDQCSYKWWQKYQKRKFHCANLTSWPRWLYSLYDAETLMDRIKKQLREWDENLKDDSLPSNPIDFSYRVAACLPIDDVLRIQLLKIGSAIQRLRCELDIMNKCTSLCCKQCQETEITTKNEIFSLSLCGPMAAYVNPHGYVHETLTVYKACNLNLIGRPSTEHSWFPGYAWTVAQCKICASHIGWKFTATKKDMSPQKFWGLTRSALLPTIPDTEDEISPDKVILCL
Sequence of CRBN/DDB1 (Q16531 whole entry partner, species assumed): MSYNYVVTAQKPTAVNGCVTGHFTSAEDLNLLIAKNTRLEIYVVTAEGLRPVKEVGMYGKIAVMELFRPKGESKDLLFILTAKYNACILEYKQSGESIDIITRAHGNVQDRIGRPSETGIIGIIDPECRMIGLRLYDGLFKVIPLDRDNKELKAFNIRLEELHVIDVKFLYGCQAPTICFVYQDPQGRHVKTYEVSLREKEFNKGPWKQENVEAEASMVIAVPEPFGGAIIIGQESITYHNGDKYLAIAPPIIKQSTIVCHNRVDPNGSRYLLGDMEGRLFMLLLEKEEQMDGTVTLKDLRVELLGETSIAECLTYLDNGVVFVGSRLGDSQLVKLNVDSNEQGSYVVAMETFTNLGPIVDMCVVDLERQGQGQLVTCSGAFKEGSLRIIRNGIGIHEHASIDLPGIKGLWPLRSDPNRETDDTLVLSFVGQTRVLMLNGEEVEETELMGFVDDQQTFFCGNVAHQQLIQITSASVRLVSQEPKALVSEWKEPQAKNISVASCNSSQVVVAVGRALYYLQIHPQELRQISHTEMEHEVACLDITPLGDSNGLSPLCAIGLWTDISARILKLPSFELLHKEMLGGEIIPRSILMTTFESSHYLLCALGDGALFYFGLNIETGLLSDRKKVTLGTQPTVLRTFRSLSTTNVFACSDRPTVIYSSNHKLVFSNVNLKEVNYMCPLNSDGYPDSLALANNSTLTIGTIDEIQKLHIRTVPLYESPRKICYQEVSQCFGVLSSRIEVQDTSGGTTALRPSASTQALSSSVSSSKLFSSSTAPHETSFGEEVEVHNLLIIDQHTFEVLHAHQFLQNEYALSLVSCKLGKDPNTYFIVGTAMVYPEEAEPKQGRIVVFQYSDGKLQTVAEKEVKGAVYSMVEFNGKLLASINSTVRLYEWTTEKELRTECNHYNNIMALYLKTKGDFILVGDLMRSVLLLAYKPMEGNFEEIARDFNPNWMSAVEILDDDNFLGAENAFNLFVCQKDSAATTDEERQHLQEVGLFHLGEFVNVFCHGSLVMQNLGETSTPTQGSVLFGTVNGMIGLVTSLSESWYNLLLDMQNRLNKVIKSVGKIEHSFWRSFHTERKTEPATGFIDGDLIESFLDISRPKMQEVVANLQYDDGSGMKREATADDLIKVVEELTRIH
Experimental: The binding potency was determined using HTRF assay technology (Perkin Elmer). Compounds were serially diluted in DMSO and […] volume was transferred to white 384-well plate.

ER in MCF-7 cells = ER in MCF-7 cells (Homo sapiens (Human), UniProt P03372); test: In-cell Western (ICW) ER degradation assay in MCF-7 cells; format: cell-based; settings: for DC50: MCF-7, ER degradation, read-out: MCF7 DC50
Sequence of ER in MCF-7 cells (P03372 whole entry): as the sequence (P03372 whole entry) above

[1] = MCF7, MCF-7, maximal ER degradation, 16 hrs treatment, read-out: MCF7 Dmax
[2] = MCF7, read-out: MCF7 Dmax, MCF-7, maximal ER degradation, 16 hrs treatment

Molecule	DC50 (ER in T47D cells) [nM]	Dmax (ER in T47D cells) [%]	IC50 (CRBN/DDB1) [nM]	Dmax (ER in MCF-7 cells; [1]) [%]	DC50 (ER in MCF-7 cells; 16 hrs treatment) [nM]	T47D Dmax (ER in T47D cells)	Dmax (ER in MCF-7 cells; [2]) [%]	MCF7 Dmax (ER in MCF-7 cells; MCF-7, maximal ER degradation, 16 hrs treatment)
O=C1CC[C@H](Nc2ccc(C3CCN(C[C@@H]4COC5(CCN(c6ccc([C@@H]7c8ccc(O)cc8CC[C@@H]7c7ccccc7)cc6)CC5)C4)CC3)cc2)C(=O)N1 (single isomer, unassigned) [Compound A28]	10 to 100	25 to 50	50 to 500	25 to 50	10 to 100	–	–	–
COc1nc(C(=O)NC2CCC(=O)NC2=O)ccc1N1CCN(CC2CCN(c3ccc([C@@H]4c5ccc(O)cc5CC[C@@H]4c4ccccc4)cc3)CC2)CC1 (single isomer, unassigned) [Compound A1]	1 to 10	25 to 50	500 to 5000	–	–	–	–	–
COc1cc([C@@H]2c3ccc(O)cc3CC[C@@H]2c2ccccc2)c(F)cc1N1CCC(CN2CCN3c4ccc5c(c4OC[C@H]3C2)CN([C@H]2CCC(=O)NC2=O)C5=O)CC1 (single isomer, unassigned) [Compound A98]	10 to 100	–	50 to 500	–	–	C (“C”: 25-50%)	–	–
O=C1CC[C@H](N2Cc3c(ccc4c3OCC43CCN(CC4CC5COCC(C4)N5c4ccc([C@@H]5c6ccc(O)cc6CC[C@@H]5c5ccccc5)cc4)CC3)C2=O)C(=O)N1 (stereo partly drawn) [Compound A81, (3S)-3-(1′-((9-(4-((1R,2S)-6-hydroxy-2-phenyl-1,2,3,4-tetra-hydronaphthalen-1-yl)phenyl)-3-oxa-9-azabicyclo[3.3.1]nonan-7-yl)methyl)-6-oxo-6,8-dihydro-2H,7H-spiro[furo[2,3-e]isoindole-3,4′-piperidin]-7-yl)piperidine-2,6-dione]	–	–	< 50	–	< 1	–	25 to 50	–
O=C1CC[C@H](N2Cc3c(ccc4c3OC[C@H]3CN(C5CN(CCOc6ccc([C@@H]7c8ccc(O)cc8CC[C@@H]7c7ccccc7)cc6)C5)CCN43)C2=O)C(=O)N1 [Compound A79, (S)-3-((R)-7-(1-(2-(4-((1R,2S)-6-hydroxy-2-phenyl-1,2,3,4-tetrahydronaphthalen-1-yl)-phenoxy)ethyl)azetidin-3-yl)-1-oxo-1,3,5,5a,6,7,8,9-octa-hydro-2H-pyrazino[1′,2′:4,5] [1,4]oxazino[2,3-e]isoindol-2-yl)piperidine-2,6-dione]	–	–	< 50	50 to 75	< 1	–	–	–
O=C1CC[C@H](N2Cc3c(ccc4c3OCC43CCN(CC4CC5(CCN(c6ncc([C@@H]7c8ccc(O)cc8CC[C@@H]7c7ccccc7)cn6)CC5)C4)CC3)C2=O)C(=O)N1 [Compound A142, (S)-3-(1′-((7-(5-((1S,2S)-6-hydroxy-2-phenyl-1,2,3,4-tetrahydronaphthalen-1-yl)pyrimidin-2-yl)-7-azaspiro[3.5]nonan-2-yl)methyl)-6-oxo-6,8-dihydro-2H,7H-spiro[furo[2,3-e]isoindole-3,4′-piperidin]-7-yl)piperidine-2,6-dione]	–	–	< 50	–	< 1	–	50 to 75	–
COc1cc(N2CC3(CCC(CN4CCN5c6ccc7c(c6OC[C@H]5C4)CN([C@H]4CCC(=O)NC4=O)C7=O)CC3)C2)c(F)cc1[C@@H]1c2ccc(O)cc2CC[C@@H]1c1ccccc1 (single isomer, unassigned) [Compound A163]	–	–	50 to 500	> 75	1 to 10	–	–	–
COc1cc(N2CC3(CCC(CN4CCN5c6cc7c(cc6OC[C@@H]5C4)C(=O)N([C@H]4CCC(=O)NC4=O)C7)CC3)C2)c(F)cc1[C@@H]1c2ccc(O)cc2CC[C@@H]1c1ccccc1 (single isomer, unassigned) [Compound A164]	–	–	500 to 5000	> 75	1 to 10	–	–	–
O=C1CC[C@H](N2Cc3cc4c(cc3C2=O)OCC42CCN(CC3CC4(CCN(c5ccc([C@H]6c7ccc(O)cc7CC[C@H]6c6ccccc6)cn5)CC4)C3)CC2)C(=O)N1 [Compound A125, (S)-3-(1′-((7-(5-((1R,2R)-6-hydroxy-2-phenyl-1,2,3,4-tetra-hydronaphthalen-1-yl)pyridin-2-yl)-7-azaspiro[3.5]nonan-2-yl)methyl)-7-oxo-5,7-dihydro-2H,6H-spiro[furo[2,3-f]iso-indole-3,4′-piperidin]-6-yl)-piperidine-2,6-dionc]	10 to 100	–	50 to 500	–	–	B (“B”: >50 and <75%)	–	–
O=C1CC[C@H](N2Cc3c(ccc4c3OC[C@H]3CN(CC5CCC6(CC5)CN(c5ncc([C@@H]7c8ccc(O)cc8CC[C@@H]7c7ccccc7)cn5)C6)CCN43)C2=O)C(=O)N1 (single isomer, unassigned) [Compound A156]	–	–	50 to 500	> 75	< 1	–	–	–
O=C1CC[C@H](N2Cc3cc4c(cc3C2=O)OC[C@@H]2CN(CC3CCC5(CC3)CN(c3ncc([C@@H]6c7ccc(O)cc7CC[C@@H]6c6ccccc6)cn3)C5)CCN42)C(=O)N1 (single isomer, unassigned) [Compound A158]	–	–	500 to 5000	50 to 75	< 1	–	–	–
O=C1CCC(NC(=O)c2ccc(C3CCN(CC4CCN(c5ccc([C@@H]6c7ccc(O)cc7CC[C@@H]6c6ccccc6)cc5)CC4)CC3)cn2)C(=O)N1 (stereo partly drawn) [Compound A3, N-(2,6-dioxopiperidin-3-yl)-5-(1-((1-(4-((1R,2S)-6-hydroxy-2-phenyl-1,2,3,4-tetrahydro-naphthalen-1-yl)phenyl)piper-idin-4-yl)methyl)piperidin-4-yl)picolinamide]	–	–	> 5000	25 to 50	< 1	–	–	–
COc1cc(N2CCC3(CC2)CC(CN2CCN4c5ccc6c(c5OC[C@H]4C2)CN([C@H]2CCC(=O)N(C)C2=O)C6=O)C3)ccc1[C@@H]1c2ccc(O)cc2CC[C@@H]1c1ccccc1 (single isomer, unassigned) [Compound A132]	–	–	500 to 5000	50 to 75	1 to 10	–	–	–
COc1cc(C2c3ccc(O)cc3CCC2c2ccccc2)c(F)cc1N1CCC(CN2CCN3c4ccc5c(c4OC[C@H]3C2)CN([C@H]2CCC(=O)NC2=O)C5=O)CC1 (stereo in doubt) [Compound A97, (S)-3-((R)-7-((1-(5-fluoro-4-((1R,2R)-6-hydroxy-2-phenyl-1,2,3,4-tetrahydronaphthalen-1-yl)-2-methoxyphenyl)piperidin-4-yl)methyl)-1-oxo-1,3,5,5a,6,7,8,9-octahydro-2H-pyrazino[1′,2′: 4,5][1,4]oxazino[2,3-e]isoindol-2-yl)piperidine-2,6-dione]	1 to 10	–	50 to 500	–	–	A (“A”: >=75%)	–	–
O=C1CC[C@H](N2Cc3c(ccc4c3OCC43CCN(C4CN(CCOc5ccc([C@@H]6c7ccc(O)cc7CC[C@@H]6c6ccccc6)cc5)C4)CC3)C2=O)C(=O)N1 [Compound A80, (S)-3-(1′-(1-(2-(4-((1R,2S)-6-hydroxy-2-phenyl-1,2,3,4-tetrahydronaphthalen-1-yl)-phenoxy)ethyl)azetidin-3-yl)-6-oxo-6,8-dihydro-2H,7H-spiro[furo[2,3-c]isoindolc-3,4′-piperidin]-7-yl)piperidine-2,6-dione]	–	–	< 50	–	< 1	–	50 to 75	–
O=C1CC[C@H](N2Cc3c(ccc4c3OC[C@H]3CN(CC5CC6COCC(C5)N6c5ccc([C@@H]6c7ccc(O)cc7CC[C@@H]6c6ccccc6)cc5)CCN43)C2=O)C(=O)N1 (stereo partly drawn) [Compound A83, (3S)-3-((5aR)-7-((9-(4-((1R, 2S)-6-hydroxy-2-phenyl-1,2,3,4-tetrahydronaphthalen-1-yl)phenyl)-3-oxa-9-azabi-cyclo[3.3.1]nonan-7-yl)meth-yl)-1-oxo-1,3,5,5a,6,7,8,9-octa-hydro-2H-pyrazino[1′,2′:4,5] [1,4]oxazino[2,3-e]isoindol-2-yl)piperidine-2,6-dione]	< 1	–	50 to 500	–	–	B (“B”: >50 and <75%)	–	–
O=C1CC[C@H](N2Cc3c(ccc4c3OCC43CCN(CC4CCC5(CC4)CN(c4ncc([C@H]6c7ccc(O)cc7CC[C@H]6c6ccccc6)cn4)C5)CC3)C2=O)C(=O)N1 [Compound A153, (S)-3-(1′-((2-(5-((1R,2R)-6-hydroxy-2-phenyl-1,2,3,4-tetrahydronaphthalen-1-yl)pyrimidin-2-yl)-2-azaspiro[3.5]nonan-7-yl)methyl)-6-oxo-6,8-dihydro-2H,7H-spiro[furo[2,3-e]isoindole-3,4′-piperidin]-7-yl)piperidine-2,6-dione]	–	–	< 50	–	> 100	–	< 25	–
(S)-3-((3-fluoro-4-(1-((1-(2-fluoro-4-((1S,2S)-6-hydroxy-2-phenyl-1,2,3,4-tetrahydronaphthalen-1-yl)-5-methoxyphenyl)piperidin-4-yl)methyl)piperidin-4-yl)phenyl)amino)piperidine-2,6-dione [Compound A120]	–	–	500 to 5000	–	10 to 100	–	–	C (“C”: 25-50%)
O=C1CC[C@H](N2Cc3c(ccc4c3OCC43CCN(CC4CCC5(CC4)CN(c4ccc([C@H]6c7ccc(O)cc7CC[C@H]6c6ccccc6)cc4F)C5)CC3)C2=O)C(=O)N1 [Compound A160, (S)-3-(1′-((2-(2-fluoro-4-((1S, 2R)-6-hydroxy-2-phenyl-1,2,3,4-tetrahydronaphthalen-1-yl)phenyl)-2-azaspiro[3.5]nonan-7-yl)methyl)-6-oxo-6,8-dihydro-2H,7H-spiro[furo[2,3-c]isoindolc-3,4′-pipcridin]-7-yl)pipcridinc-2,6-dione]	–	–	50 to 500	–	10 to 100	–	50 to 75	–
